This is an account of results in patent publication US5071988A, “Substituted benzoylbenzene-, biphenyl- and 2-oxazole-alkanoic acid derivatives” (American Home Products Corporation, priority 1991, dated 1991).

Read-outs that look alike come from different tables or passages of the source.

By inhibition is commonly meant the drop in the measured response relative to a control, in per cent. Usually ED50 stands for the dose that gives a 50% effect, or the effect in half of the subjects.

In test [1] the test system is LTB4 synthesis by rat glycogen-elicited polymorphonuclear leukocytes (PMN). Kind of test: inhibition of LTB4 synthesis by rat glycogen-elicited polymorphonuclear leukocytes (PMN). It counts as cell-based, rat (female Wistar). Particulars: Leukocyte. The source says: This is especially true with respect to 5,12-diHETE, which is also denoted as LTB4 [see Ford-Hitchinson, J. Roy. […] Med., 74, 831 (1981)]. Compounds which inhibit the PLA2 -mediated release of arachidonic acid thereby effectively prevent the oxidation of arachidonic acid to the various leukotriene products via the lipoxygenase cascade. Accordingly, the specificity of action of PLA2 inhibitors can be determined by the activity of test compounds in this assay, which measures the ability of compounds to inhibit the synthesis of LTB4 by rat glycogen-elicited polymorphonuclear leukocytes (PMN) in the presence of exogenous substrate.
The assay is carried out as follows:
(§1) Rat polymorphonuclear leukocytes (PMNs) are obtained from female Wistar rats (150-200 g) which receive an injection of 6% glycogen (10 ml i.p.). Rats are sacrificed 18-24 hours post injection by CO2 asphyxiation and the elicited cells are harvested by peritoneal lavage using physiological saline (0.9% NaCl). The exudate is centrifuged at 400 xg for 10 minutes. The supernatant fluid is discarded and the cell pellet is resuspended to a concentration of 2.0×10^7 cells/mL in HBSS containing Ca^++ and Mg^++ and 10 μM L-cysteine.
(§2) To 1 mL aliquots of cell suspension, test drugs or vehicle are added, then preincubated at 37° C. for 10 minutes. A23187 (1 μM), [^3 H]-AA (3.0 μCi/mL) and unlabeled AA (1 μM) are then added and the samples are further incubated for 10 minutes. The reaction is terminated by centrifugation and pelleting cells. Supernatants are then analyzed by HPLC analysis on a 15 cm×4.6 mm ID supelcosil LC-18 (Supelco)(3M) column, using a two solvent system at a flow rate of 1.4 mL total flow as follows:
Gradient: (system is equilibrated with Solvent A)
Percent solvent changes are accomplished in a linear fashion.
Injections: 140 μL of each supernatant is injected directly onto column and ^3 H arachidonic acid metabolites are monitored using an on-line radioactivity detector (Ramona, IN/US, Fairfield, N.J.).
Standards: 10^4 -2.0×10^4 dpm of eicosanoids of interest are injected in 90 μL EtOH cocktail.
Results are expressed as percent inhibition at a given compound dose or as an IC50 value.

Test [2] concerns PGE2 synthesis by rat glycogen-elicited polymorphonuclear leukocytes (cyclooxygenase). Put plainly: inhibition of PGE2 (cyclooxygenase product) synthesis by rat glycogen-elicited polymorphonuclear leukocytes. It counts as cell-based, rat (female Wistar). The note with it: Leukocyte; for inhibition at 0.5 µM: read-out: % Inhibition (PGE2 synthesis). On the procedure:
as §1, §2
In this assay, the procedure of Example 14 is carried out as described. However, in order to determine cyclooxygenase activity, the samples are cochromatographed with authentic reference [^3 H]-PGE2.

For a further test, the target named is T1, Human Synovial PLA2 (Homo sapiens, UniProt P14555).
T1 construct: Purified human synovial fluid; from tissue; host or cells: human synovial fluid (purified)
T1 sequence (P14555 21-144): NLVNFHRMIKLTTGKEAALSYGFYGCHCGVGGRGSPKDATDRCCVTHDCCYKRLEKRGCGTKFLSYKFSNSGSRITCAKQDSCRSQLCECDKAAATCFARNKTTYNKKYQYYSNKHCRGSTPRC
Kind of test: in vitro isolated phospholipase A2 assay, human synovial fluid PLA2. It counts as biochemical. The note with it: read-out: % Inhibition at 10 μM HSF. The protocol: The compounds of the invention are tested in an in vitro isolated phospholipase A2 assay to determine the ability of the test compounds to inhibit the release of arachidonic acid from an arachidonic acid-containing substrate by the action of phospholipase A2 enzyme from human and non-human sources.
Into a 15 mL polypropylene tube are added the following:
^ 6 Two human PLA2 enzymes are used:
b) Purified human synovial fluid.
Incubate the 100 μL reaction mixture for 10 minutes at 37° C. in a shaking water bath. The reaction is terminated by the addition of 2 mL tetrahydrofuran, followed by vortexing. NH2 columns (100 μg/mL--Analytichem International) are conditioned with 0.5 mL tetrahydrofuran followed by 0.5 mL tetrahydrofuran/water (2 mL:0.1 mL, v/v).
The sample is loaded onto the columns and slowly drawn through them. The hydrolyzed arachidonic acid retained in the columns is eluted therefrom with 1 mL tetrahydrofuran/glacial acetic acid (2%). The arachidonic acid is transferred to scintillation vials and quantitated by β-counting analysis. A "total counts" sample is prepared by pipetting 25 μL ^3 H-arachidonate E. coli directly into a scintillation vial to which is added 1 mL tetrahydrofuran. 10 mL aquasol (scintillation cocktail) is added to all samples.

Another test relates to TxB2. Kind of test: reverse passive Arthus pleurisy assay, TxB2. It counts as in vivo, rat (male Lewis). Particulars: for ED50: Rattus norvegicus, po, read-out: ED50 TxB2; for ED50 / ED50 TxB2: 5 min. On the procedure:
(§3) The compounds of the invention are further tested in the reverse passive Arthus pleurisy assay to evaluate their effectiveness in inflammatory mediator release and/or the fluid and cellular phases of an inflammatory response.
(§4) A reverse passive Arthus reaction is induced in the pleural cavity of male Lewis rats (150-200 g; fasted overnight prior to use) by the intravenous administration of bovine serum albumin (BSA; 4 mg/0.2 ml) followed by 30 minutes later by the injection of rabbit anti-BSA (1 mg/0.2 ml; lyophilized IgG fraction; Organon Teknika, West Chester, Pa.) into the right pleural space under halothane anesthesia. Drugs or vehicle (0.5% Tween-80) control are administered orally in a volume of 1 ml/100 g body weight at 1 hour prior to the anti-BSA. Animals are sacrificed at either the time of peak eicosanoid production (i.e. 5 minutes after anti-BSA for immunoreactive TxB2 10 minutes for immunoreactive LTB4, 20 minutes for immunoreactive LTC4) or at the time of peak neutrophil infiltration (4 hours after anti-BSA) by CO2 inhalation. The pleural cavity is then exposed, the fluid exudate removed by gentle vacuum aspiration and the volume of exudate is recorded. For the determination of cellular infiltration, the pleural cavity is rinsed with 3 ml of 0.1% EDTA in sterile saline, and the recovered wash is pooled with the exudate. Cell number is determined on a model ZBI Coulter counter. For determination of eicosanoid production, undiluted pleural exudate is microfuged and the supernatant is extracted with ethanol (8-10 times volume). Extracts are either stored at -20° C., or are evaporated to dryness under a stream of N2 and reconstituted in radioimmunoassay (RIA) buffer.
(§5) Eicosanoids are quantitated by RIA according to the procedure specified by the RIA kit manufacturer (Advanced Magnetics, Cambridge, Mass.). Briefly, 100 μl of ^3 H-labeled eicosanoid and 100 μl of specific antibody are sequentially added to 100 μl of extracted pleural exudate in BGG -phosphate buffer which contains 0.01M phosphate, 0.1% bovine gamma globulin and 0.1% sodium azide at pH 7.0. Antibody-bound eicosanoid is separated from unbound eicosanoid by the addition of 750 μl of dextran (0.4%)-coated charcoal (0.4% Norit A) containing 0.1% sodium azide. The mixture is centrifuged at 2000 RPM at 5° C. for 15 minutes to pellet the charcoal and adsorbed unbound eicosanoid. Antibody-bound labeled eicosanoid is quantitated by counting in a liquid scintillation counter, and is correlated to concentration by a standard curve.
(§6) Inflammatory cells are expressed as 10^6 cells/ml, pleural exudate is expressed as ml of fluid, and the amount of eicosanoids in the pleural cavity is expressed as ng/ml of exudate. Mean±S.E.M. is determined for each group. Percent inhibition (% I) of cell number, exudate volume and eicosanoid production is calculated for vehicle-treated control groups, and the responses in drug-treated rats are then expressed as the mean % I of the control. […] Exp. Ther., 96, 99-113 (1949).

In the next test the test system is LTB4. Kind of test: reverse passive Arthus pleurisy assay, LTB4. It counts as in vivo, rat (male Lewis). Particulars: for ED50: Rattus norvegicus. The protocol:
as §3, §4, §5, §6

The subject of a further test is Cellular Influx. Kind of test: reverse passive Arthus pleurisy assay, cellular influx. It counts as in vivo, rat (male Lewis). Particulars: Rattus norvegicus, po, 4 h, 1 hour prior to anti-BSA; standard drugs. The protocol:
as §3, §4, §6

A further test relates to Fluid Exudation. Kind of test: reverse passive Arthus pleurisy assay, fluid exudation. It counts as in vivo, rat (male Lewis). Particulars: 1 hour prior to anti-BSA, standard drugs; for ED30: Rattus norvegicus, po; for ED30 Fluid Exudation: p.o. The protocol: as §3, §4, §6
Where [3] appears, read: negative values denote potentiation of cyclooxygenase.
The mark [4] stands for this setting: at 10 μM, human synovial fluid, negative values denote potentiation of HSF.
[5] abbreviates: at 0.5 μM, negative values denote potentiation of cyclooxygenase.
The mark [6] stands for this setting: p.o., 1 hour prior to anti-BSA, standard drugs.

As for `O=C(O)Cc1cccc(C(=O)c2ccc(OCc3ccc4ccccc4c3)cc2)c1` [Example 4, 3-[4-(2-Naphthalenylmethoxy)benzoyl]benzene acetic acid], the inhibition at 10 µM in test [1] is 8%; in test [2] (setting [3]) it was -31%; on Human Synovial PLA2 (setting [4]) it was 15.1%.

As for `O=C(O)Cc1ccccc1Nc1c(Cl)cccc1Cl` [Diclofenac], the ED50 in the test on TxB2 is 6 mg/kg.

With `O=C(O)Cc1ccc(-c2ccc(OCc3ccc4ccccc4n3)cc2)c(F)c1` [Example 9, 2-Fluoro-4'-(2-quinolinylmethoxy)[1,1'-biphenyl]-4-acetic acid, 2-amino-2-hydroxymethyl-1,3-propane diol], in the test with LTB4 (reverse passive Arthus pleurisy, oral, read-out: ED50 (LTB4 Synthesis)), the ED50 turned out to be 0.8 mg/kg.

As for `CC(=O)c1ccc(-c2ccc(OCc3ccc4ccccc4n3)cc2)c([N+](=O)[O-])c1` [Example 1, 1-[2-Nitro-4'-(2-quinolinylmethoxy)-[1,1'-biphenyl]4-yl]ethanone], the inhibition at 0.5 µM in test [1] is 95%; in test [2] (setting [5]), -13%.

With `O=C1CCN(c2ccccc2)N1` [Phenidone], the ED30 with Cellular Influx turned out to be 23 mg/kg; with Fluid Exudation it was 21 mg/kg. The ED50 was 10 mg/kg in the test on LTB4 (po, 1 hour prior to anti-BSA, standard drugs, read-out: ED50 LTB4) and 69 mg/kg with TxB2 (setting [6]).

For `O=C(O)CCc1nc(-c2ccc(OCc3ccc4ccccc4c3)cc2)c(-c2ccccc2)o1` [Example 6, 4-[4-[2-Naphthalenylmethoxy]phenyl]-5-phenyl-2-oxazole propanoic acid], the figures for the inhibition at 0.5 µM in test [1] and in test [2] were 81% and -12%, respectively. Further, the inhibition at 10 µM is 95% in test [1] and -191% in test [2] (setting [3]).

`C[C@H](C(=O)O)c1ccc2cc(OCc3ccc4ccccc4n3)ccc2c1.NC(CO)(CO)CO` [Wy-50,295-A]: in the test with TxB2 (75 mg/kg p.o.), the “% Inh TxB2” value was determined as 0%.

With `COC(=O)CCc1nc(-c2ccc(OCc3ccc4ccccc4c3)cc2)c(-c2ccccc2)o1` [Example 6A, 4-[4-[2-Naphthalenylmethoxy]phenyl]-5-phenyl-2-oxazole propanoic acid methylester], the inhibition at 0.5 µM in test [1] was 63%; in test [2] (setting [5]), -29%. For the same compound, the values for the inhibition at 10 µM in test [1] and in test [2] (setting [3]) were 94% and -79%, respectively.

Turning to `O=C(O)Cc1ccc(-c2ccc(OCc3ccc4ccccc4n3)cc2)c(F)c1` [Example 2, 2-Fluoro-4'-(2-quinolinylmethyoxy)-[1,1'-biphenyl]-4-acetic acid], the values for the inhibition at 0.5 µM in test [1] and in test [2] were 91% and -22%, respectively.

Take `CN1C(C(=O)Nc2ccccn2)=C(O)c2ccccc2S1(=O)=O` [Piroxicam]: the ED30 was 3 mg/kg with Cellular Influx and 1 mg/kg in the test on Fluid Exudation.

Consider `CN=C1CCN(c2cccc(C(F)(F)F)c2)N1` [BW540C], for which the “ED50 LTB4” value in the test with LTB4 (setting [6]) is listed as 30 mg/kg p.o. In the test with TxB2 (setting [6]), the “ED50 TxB2” value is 19 mg/kg p.o.

The compound `C[C@@H]1C[C@H]2[C@@H]3CCC4=CC(=O)C=C[C@]4(C)[C@@]3(F)[C@@H](O)C[C@]2(C)[C@@]1(O)C(=O)CO` [Dexamethasone] gave an ED30 in the test on Cellular Influx of 0.13 mg/kg. Further, in the test on Fluid Exudation, the “ED30 Fluid Exudation” value turned out to be 0.05 mg/kg p.o.

Consider `CC(C(=O)O)c1cccc(C(=O)c2ccccc2)c1` (stereo not drawn) [ketoprofen], for which the inhibition at 10 µM on Human Synovial PLA2 is -16.9%. Besides, in the test with TxB2, the ED50 came out at 0.18 mg/kg.

Take `Cn1c(COc2ccc(-c3nc(CCC(=O)O)oc3-c3ccccc3)cc2)nc2ccccc21` [Example 7, 4-[4-[(1-Methyl-1H-benzimidazol-2-yl)methoxy]phenyl]-5-phenyl-2-oxazole propanoic acid]: in test [1], the inhibition at 10 µM worked out at 85%.

Regarding `COc1ccc2cc([C@H](C)C(=O)O)ccc2c1` [Naproxen], the “% Inh LTB4” value in the test with LTB4 (4 mg/kg p.o.) was found to be 0%. For the same compound, the “ED50 TxB2” value with TxB2 (setting [6]) is 0.24 mg/kg p.o. The “ED30 Fluid Exudation” value in the test on Fluid Exudation amounted to 3.9 mg/kg p.o.

`O=C(O)Cc1cccc(C(=O)c2ccc(OCc3ccc4ccccc4n3)cc2)c1` [Example 3, 3-[4-(2-Quinolinylmethoxy)benzoyl]benzene acetic acid]: the figures for the inhibition at 0.5 µM in test [1] and in test [2] (setting [5]) were 38% and -8%, respectively. Besides, the inhibition at 10 µM in test [1] came out at 87%; in test [2] (setting [3]) it was 8%; on Human Synovial PLA2 (setting [4]), 25.5%.
